Reference: patent US10046050B2, “Targeting immunotherapy for amyloidosis” (UNIVERSITY OF TENNESSEE RESEARCH FOUNDATION, priority 2014, dated 2018)

Legend:
AA amyloid = biological target: T1, AA amyloid (Mus musculus, UniProt P05367); assay: In vivo pre-targeting of ^125I-11-1F4 to systemic AA amyloid; set-up: species or system mice
T1 construct: from tissue; host or cells: organs of living H2-L^d-huIL-6 Tg Balb/c mice after AEF injection
T1 sequence (P05367 20-94 limits assumed): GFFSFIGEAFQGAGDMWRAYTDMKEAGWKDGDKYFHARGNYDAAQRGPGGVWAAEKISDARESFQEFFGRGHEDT
Procedure: Systemic visceral AA amyloidosis was induced in H2-L^d-huIL-6 Tg Balb/c transgenic mice that constitutively express the human interleukin-6 transgene, by iv injection of 10 μg of purified, splenic AA amyloid (amyloid enhancing factor; AEF) in 100 μL of sterile phosphate-buffered saline (PBS). Peptide p66 pre-targeting of ^125I-11-1F4 was evaluated in mice at 3-4 wk post AEF injection when amyloid load was modest.
Three cohorts of 3 mice, each received ˜400 μg of unlabeled peptide p66, and a second group of 3 cohorts were given peptide p5+14 as a control. Twenty-four hours after the peptide injection all mice were administered ˜150 μCi (˜20 μg) of ^125I-11-1F4 IV in the lateral tail vein. One group of p66 mice (n=3) and one group of p5+14 control mice (n=3) were euthanized at 24, 48 and 72 h post injection of 11-1F4 mAb and the organs harvested at necropsy for fixation, followed by microautoradiographic and immunohistochemical analyses.
(§1) For autoradiography, 6-μm-thick sections were cut from formalin-fixed, paraffin-embedded blocks, containing tissues from mice that had received […]. The sections were placed on Plus microscope slides (Fisher Scientific), dipped in NTB-2 emulsion (Eastman Kodak), stored in the dark, and developed after a 4 day exposure. Each section was counterstained with hematoxylin and eosin.
Formalin-fixed paraffin embedded tissue sections, from mice treated with p66 peptope or peptide p5+14 were subjected to antigen retrieval using citrate buffer (pH 6; Dako) 30 min at 90° C. The tissue was then blocked with hydrogen peroxide, casein, and avidin and biotin, per manufacturer's instructions. The biotinylated peptide-reactive mAb (clone 12-3 [described above]) was then added (1.6 μg/mL in PBS) an the samples incubated for 2 h at RT, O/N at 4° C., followed by another 2 h period at RT. […]
The presence of macrophages was detected by staining with mAb Iba-1 (1:8000 diln) followed by addition of biotinylated rabbit anti-mouse secondary reagent (Vector Rabbit Elite kit). […]

healthy tissues = assay: In vivo ^125I-p66 in healthy WT mice (microautoradiography); settings: autoradiography
Procedure: Imaging was performed using WT or AA amyloid mice (n=3) that were injected with ˜5 μg of ^125I-p66, 125 μCi in the lateral tail vein. After the appropriate uptake time (data for 4 and 72 h pi shown), mice were euthanized by isoflurane inhalation overdose. SPECT images were acquired using an Inveon trimodality imaging platform (Siemens Preclinical Solution, Knoxville, Tenn.) running Inveon Acquisition Workplace software (ver. 2.0). Low energy (^125I; 25-45 keV) gamma photons were acquired at each of 60, 16-sec projections with 90 mm of bed travel. A 1 mm-diameter, 5-pinhole (Mouse Whole Body) collimator was used at 30 mm from the center of the field of view. Data were reconstructed post hoc onto an 88×88×312 matrix with isotropic 0.50 mm voxels using a 3D ordered subset expectation maximization (OSEM) algorithm (8 iterations; 6 subsets).
as §1
All tissue sections were examined using a Leica DM500 light microscope fitted with cross-polarizing filters (for Congo red). […]

Aβ(1-40) fibrils = biological target: T2, Aβ(1-40) fibrils (Homo sapiens, UniProt P05067); assay: Pulldown assay of ^125I-7D8 with fibrils +/- peptope; assay type: binding; settings: fibrils pre-incubated with peptope (65 nM)
T2 construct: synthetic amyloid fibrils composed of rVλ6Wil (AL fibrils) or Aβ(1-40); host or cells: synthetic peptide fibrils
Procedure: The 7D8 antibody (15 μg) was radiolabeled with 0.5 mCi of reductant-free iodine-125 (^125I, Perkin Elmer) using limiting amounts of chloramine T (10 μg) and suspended in PBS containing 0.1% gelatin as carrier protein. Unbound radioisotope and protein aggregates were removed from the preparation by size-exclusion liquid chromatography using an Ultrogel AcA34 solid phase (Amersham Pharmacia). Fractions containing ^125I-7D8 were pooled for pull-down assays. The relative radiopurity of the preparation was assessed by SDS/PAGE (4-12% acrylamide; Novex) followed by imaging using a phosphor-imager (Cyclone).
Pulldown assays were performed using ^125I-7D8 using, as a substrate, peptope-conjugated to polystyrene beads, synthetic fibrils (Aβ[1-40] or IAPP) or human ATTR amyloid extracts (transthyretin-associated amyloid [ATTR] was previously isolated from the organs of three different patients with Appalachian mutation—Thr60Ala). […] The sample was mixed end over end for 1 h at room temperature, and the bound and free ^125I-7D8 were then separated by serial centrifugations at 16,000×g and the percent bound calculated immunoreactivity=[boundcpm/(boundcpm+freecpm)]×100 Pulldown assays using synthetic fibrils and amyloid extracts were performed essentially as described herein. […]

T2 sequence (P05067 672-711 limits assumed): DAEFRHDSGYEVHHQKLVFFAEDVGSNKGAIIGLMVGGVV

Substance | co-localization of ^125I-11-1F4 with AA amyloid after peptide pre-targeting (AA amyloid; 24 h post injection of 11-1F4 mAb, peptide given 24 h before mAb) | liver macrophage infiltration (Iba-1 staining) (AA amyloid; 72 h post injection of 11-1F4 mAb, peptide pre-injected, preliminary data) | binding of radiolabeled peptide to healthy tissues in vivo (healthy tissues) | bound mAb (Aβ(1-40) fibrils) [%]
KAQKAQAKQAKQAQKAQKAQAKQAKQAQKAQKAQAKQAKQ SVTVVT KHYAAFPENLLI [p66] | exclusively co-localized with the p66-coated AA amyloid | induced macrophage infiltration into the liver and clustering of macrophages around amyloid deposits to a greater degree | did not bind to any tissue that was studied | 
KAQKAQAKQAKQAQKAQKAQAKQAKQAQHEDT [p75, KAQKAQAKQAKQAQKAQKAQAKQAKQAQHEDT] |  |  |  | 58.9
